Values after ≈ are worked out from the molar mass of the structure shown.
Key:
[1] = Metabolic stability in rat intestinal microsomes assessed as compound remaining after 60 mins in absence of NADPH/UDPGA; format: ADME, Intestine, Microsome; conditions: for remaining at 1 h: intestinal microsomes, read-out: Stability
[2] = Metabolic stability in rat intestinal microsomes assessed as compound remaining after 60 mins in presence of NADPH; format: ADME, Intestine, Microsome; conditions: read-out: Stability
[3] = Metabolic stability in rat intestinal microsomes assessed as compound remaining after 60 mins in presence of UDPGA; format: ADME, Intestine, Microsome; conditions: read-out: Stability
[4] = Metabolic stability in rat intestinal microsomes assessed as compound remaining after 60 mins in presence of NADPH/UDPGA; format: ADME, Intestine, Microsome; conditions: for remaining at 1 h: intestinal microsomes, read-out: Stability
[5] = target: Serine/threonine-protein kinase pim-1 (Homo sapiens, UniProt P11309); experiment: Inhibition of PIM1 (unknown origin) using 5FAM-ARKRRRHPSGPPTA as substrate after 90 mins in presence of ATP by caliper microfluidic mobility shift assay
[6] = target: Serine/threonine-protein kinase pim-2 (Homo sapiens, UniProt Q9P1W9); experiment: Inhibition of PIM2 (unknown origin) using 5FAM-ARKRRRHPSGPPTA as substrate after 90 mins in presence of ATP by caliper microfluidic mobility shift assay
[7] = target: Serine/threonine-protein kinase pim-3 (Homo sapiens, UniProt Q86V86); experiment: Inhibition of PIM3 (unknown origin) using 5FAM-ARKRRRHPSGPPTA as substrate after 90 mins in presence of ATP by caliper microfluidic mobility shift assay
[8] = Clearance in rat liver microsomes; format: ADME, microsome
[9] = Clearance in rat hepatocytes; format: ADME, cell-based, Hepatocyte
[10] = Clearance in rat at 1 mg/kg, iv; format: ADME, organism-based; conditions: in vivo
[11] = Oral bioavailability in rat at 5 mg/kg; format: ADME, organism-based; conditions: in vivo
[12] = test system: MM1.S; experiment: Antiproliferative activity against human MM1S cells after 72 hrs by CellTiter-Glo assay; format: functional, cell-based
[13] = Metabolic stability in mouse intestinal microsomes assessed as compound remaining after 60 mins in absence of NADPH/UDPGA; format: ADME, Intestine, Microsome; conditions: 1 h
[14] = Metabolic stability in mouse intestinal microsomes assessed as compound remaining after 60 mins in presence of NADPH/UDPGA; format: ADME, Intestine, Microsome; conditions: 1 h
[15] = Metabolic stability in human intestinal microsomes assessed as compound remaining after 60 mins in absence of NADPH/UDPGA; format: ADME, Intestine, Microsome; conditions: 1 h
[16] = Metabolic stability in human intestinal microsomes assessed as compound remaining after 60 mins in presence of NADPH/UDPGA; format: ADME, Intestine, Microsome; conditions: 1 h
[17] = Metabolic stability in dog intestinal microsomes assessed as compound remaining after 60 mins in absence of NADPH/UDPGA; format: ADME, Canis lupus familiaris, Intestine, Microsome; conditions: 1 h
[18] = Metabolic stability in dog intestinal microsomes assessed as compound remaining after 60 mins in presence of NADPH/UDPGA; format: ADME, Canis lupus familiaris, Intestine, Microsome; conditions: 1 h
[19] = Metabolic stability in cynomolgus monkey intestinal microsomes assessed as compound remaining after 60 mins in absence of NADPH/UDPGA; format: ADME, Macaca fascicularis, Intestine, Microsome; conditions: 1 h
[20] = Metabolic stability in cynomolgus monkey intestinal microsomes assessed as compound remaining after 60 mins in presence of NADPH/UDPGA; format: ADME, Macaca fascicularis, Intestine, Microsome; conditions: 1 h
[21] = Kinetic solubility of compound at pH 7.4; conditions: buffer
[22] = Apparent permeability across apical to basolateral side in MDCK cells; format: ADME, cell-based, Canis lupus familiaris; conditions: dog
[23] = Efflux ratio of apparent permeability in MDCK cells; conditions: dog

Chain of Serine/threonine-protein kinase pim-1 (P11309 whole entry): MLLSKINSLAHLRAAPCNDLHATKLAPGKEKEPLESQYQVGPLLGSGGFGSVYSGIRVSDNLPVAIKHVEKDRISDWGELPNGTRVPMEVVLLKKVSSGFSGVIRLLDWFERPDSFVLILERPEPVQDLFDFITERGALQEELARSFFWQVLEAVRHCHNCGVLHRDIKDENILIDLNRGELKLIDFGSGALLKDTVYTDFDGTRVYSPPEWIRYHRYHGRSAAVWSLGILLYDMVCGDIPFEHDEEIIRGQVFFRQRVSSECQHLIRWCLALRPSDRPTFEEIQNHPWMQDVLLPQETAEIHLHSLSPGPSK
Chain of Serine/threonine-protein kinase pim-2 (Q9P1W9 whole entry): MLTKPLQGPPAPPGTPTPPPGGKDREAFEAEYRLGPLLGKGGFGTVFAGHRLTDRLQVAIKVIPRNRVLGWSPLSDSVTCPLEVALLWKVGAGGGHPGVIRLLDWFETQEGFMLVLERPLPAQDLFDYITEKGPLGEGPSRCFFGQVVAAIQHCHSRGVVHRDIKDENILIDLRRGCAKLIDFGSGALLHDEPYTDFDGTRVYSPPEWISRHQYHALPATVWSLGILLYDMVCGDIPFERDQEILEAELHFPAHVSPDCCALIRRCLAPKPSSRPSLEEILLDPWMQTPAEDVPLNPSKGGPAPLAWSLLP

SMILES | remaining at 1 h [1] [%] | remaining at 1 h [2] [%] | remaining at 1 h [3] [%] | remaining at 1 h [4] [%] | Ki [5] [nM] | Ki [6] [nM] | Ki [7] [nM] | further results
Cc1cncc(-c2cn3c(-c4cccc(N5CCCNCC5)n4)ncc3cn2)n1 | 106 | 111 | 69 | 66 | 0.5 | 16 | 0.4 | 
CCn1cc(-c2cc3c(-c4cccc(N5CCOCC5)n4)n[nH]c3cn2)cn1 | 77 | 89 | 0.2 | 0.4 |  | 4 | 0.2 | 
Cc1cncc(-c2cc3c(cn2)cnn3-c2cccc([C@H]3CNCCC3(F)F)n2)n1 |  |  |  |  | 0.07 | 0.23 |  | CLhep predicted [8]: 42 mL/min/kg; CLhep predicted [9]: 31 mL/min/kg; clearance [10]: 40 mL/min/kg; bioavailability [11]: 57%; IC50 [12]: 1200 nM
Cc1cncc(-c2cc(F)c3cnn(-c4cccc(N5CCCNCC5)n4)c3c2)n1 | 108 | 107 | 103 | 98 | 450 | 7400 | 270 | 
c1cncc(-c2cc3c(-c4cccc(N5CCNCC5)n4)n[nH]c3cn2)c1 |  |  |  |  |  |  |  | Stability ([1]; microsomes, 1 h): Stable; Stability ([4]; microsomes, 1 h): Unstable; Stability [13]: Unstable; Stability [14]: Unstable; Stability [15]: Stable; Stability [16]: Stable; Stability [17]: Stable; Stability [18]: Stable; Stability [19]: Stable; Stability [20]: Stable
Cc1cncc(-c2cc3c(cn2)cnn3-c2cccc(N3CCCNCC3)n2)n1 | 91 | 99 | 85 | 91 |  |  |  | CLhep predicted [8]: 32 mL/min/kg; CLhep predicted [9]: 27 mL/min/kg; clearance [10]: 28 mL/min/kg; bioavailability [11]: 42%; IC50 [12]: 5000 nM
Cn1cc(-c2cc3c(-c4cccc(N5CCC[C@H](N)C5)n4)n[nH]c3cn2)cn1 | 87 | 86 | 67 | 69 |  | 0.2 | 0.02 | 
Cc1ccc(-c2n[nH]c3cnc(-c4cccnc4)cc23)nc1N1CCC[C@H](N)C1 | 98 | 37 | 62 | 27 |  |  |  | solubility kinetic [21]: 81.2 µM (≈ 31.3 µg/mL); CLhep predicted [8]: 34 mL/min/kg; CLhep predicted [9]: 34 mL/min/kg; Papp A→B [22]: 3 ×10⁻⁶ cm/s; efflux ratio [23]: 1.8; clearance [10]: 21 mL/min/kg; bioavailability [11]: 0%
Cc1cncc(-c2ccc3cnn(-c4cccc(N5CCCNCC5)n4)c3c2)n1 | 91 | 84 | 100 | 101 | 0.4 | 7.9 | 0.2 | 
Cc1cncc(-c2cc3c(cnn3-c3cccc(N4CCCNCC4)n3)nn2)n1 | 103 | 118 | 81 | 80 | 0.02 | 0.48 | 0.03 | 
N[C@H]1CCCN(c2cccc(-c3n[nH]c4cnc(-c5cccnc5)cc34)n2)C1 | 93 | 34 | 48 | 26 | 0.04 | 0.2 | 0.02 | 
CCn1cc(-c2cc3c(-c4cccc(N5CCN(C)CC5)n4)n[nH]c3cn2)cn1 | 82 | 91 | 0.4 | 0.4 | 0.3 | 3 | 0.1 | 
